This note sets out measurements from patent publication US7160917B2, “Spirobenzofuran lactams and their derivatives, processes for their preparation and use thereof” (Sanofi-Aventis Deutschland GmbH, priority 2002, dated 2007).

In the assay the target is plasminogen activator inhibitor 1 (PAI-1) (Homo sapiens, UniProt P05121). The assay can be described thus: Bioassay for PAI-1 inhibitors (tPA amidolysis of chromogenic substrate in presence of PAI-1). In kind it is biochemical. The note with it: inhibition of PAI-1 measured via tPA activity; 4.5 nM PAI-1, 7.5 nM tPA, 1 mM substrate H-D-Ile-Pro-Arg-pNA, TRIS buffer pH 8.4, OD 405 nm, 37° C. 60 minutes. As for the experimental part: For the detection of the inhibitors of PAI-1, a test is run in which the activation of a specific substrate by tPA is measured in the presence of a defined amount of PAI-1 and the substance in each case to be investigated. tPA is inhibited by PAI-1. An inhibition of PAI-1 results in an increased tPA activity. The enzymatic activity of tPA is measured colorimetrically by employing a chromogenic substrate which becomes colored after amidolysis.
Chain of plasminogen activator inhibitor 1 (PAI-1) (P05121 24-402): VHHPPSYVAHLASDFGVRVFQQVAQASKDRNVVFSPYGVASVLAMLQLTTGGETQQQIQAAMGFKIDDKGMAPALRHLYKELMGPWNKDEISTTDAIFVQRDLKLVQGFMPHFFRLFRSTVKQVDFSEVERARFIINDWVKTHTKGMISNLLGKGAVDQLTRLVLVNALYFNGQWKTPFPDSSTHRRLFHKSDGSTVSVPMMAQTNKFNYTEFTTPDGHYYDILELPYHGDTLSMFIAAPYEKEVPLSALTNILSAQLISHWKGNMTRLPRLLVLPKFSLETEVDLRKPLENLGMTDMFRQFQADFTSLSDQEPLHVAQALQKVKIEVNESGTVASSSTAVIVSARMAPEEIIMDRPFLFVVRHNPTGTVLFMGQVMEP
Reaction: The inhibition of the enzymatic activity of tPA by PAI-1 is measured by means of the amidolysis of the chromogenic substrate H-D-IIe-Pro-Arg-pNA (Chromogenix; pNA=para-nitroaniline) as the optical density (OD) at a wavelength of 405 nm.
Extracts or pure substances, for example of the spirobenzofuran lactam derivatives prepared or characterized in examples 4–10, which are present dissolved in DMSO, were diluted in a suitable manner using TRIS buffer pH 8.4.
5 μl of test substance and 5 μl of PAI-1 are preincubated at room temperature for 30 minutes. 10 μl of tPA solution and 20 μl of substrate solution are then added.
The final concentrations in the sample are 50 μM test substance, 4.5 nM PAI-1, 7.5 nM tPA and 1 mM substrate in TRIS buffer pH 8.4. Immediately after the addition of the substrate, the initial absorption is measured at 405 nm. After incubation at 37° C. for 60 minutes, the absorption is measured again.
In each case, blank samples (buffer instead of tPA), positive controls=B (buffer instead of test substances) and tPA controls=A (buffer instead of PAI-1) are co-tested.
After correction by means of the blank samples, the inhibition is determined according to the following equation: […]
The results of the assay are shown as IC50 values in Table 1.

As a reminder, the IC50 is the concentration at which inhibition is half-maximal. As to `CC1CCC2C(C)(C)C(O)CCC2(C)C12Cc1c(O)cc3c(c1O2)CN(C(Cc1ccccc1)C(=O)O)C3=O` (stereo not drawn) [Compound of the formula (II)], the 50% inhibitory concentration (IC50) was 41 µM. The figure for `CCC(C)C(C(=O)O)N1Cc2c(cc(O)c3c2OC2(C3)C(C)CCC3C(C)(C)C(O)CCC32C)C1=O` (stereo not drawn) [Compound of the formula (III)] is 66 µM; for `CC(C)CC(C(=O)O)N1Cc2c(cc(O)c3c2OC2(C3)C(C)CCC3C(C)(C)C(O)CCC32C)C1=O` (stereo not drawn) [Compound of the formula (IV)] it is 35 µM.
